Data as given in patent US20110196035A1, “Temporally-Controlled Treatment of Joint Disease” (priority 2010, published 2011).
Read-outs that look alike come from different tables or passages of the source.

System: HIG-82 synovial cells
Method: After having made these measurements at various times following insertion of the test composition into the simulated joint, the effect on MMP production by synovial cells for relevant blocker concentrations and times of exposure was measured employing a confluent layer of HIG-82 synovial cells in serumless Neuman-Tytell growth medium, which is a model system commonly used by those skilled in the art to represent human synovial tissue for the purpose of studying the proinflammatory effects of IL-1 and the antagonization thereon produced by agents of interest, for example, calcium-channel blockers.
The MMP levels in the medium conditioned by the cells were measured using the assay described in Kolomytkin, O. V., Marino, A. A., Waddell, D. D., Mathis, J. M., Wolf, R. E., Sadasivan, K. K. and Albright, J. A. IL-1β-induced Production of Metalloproteinases by Synovial Cells Depends on Gap-junction Conductance.

## COc1ccc(CCN(C)CCCC(C#N)(c2ccc(OC)c(OC)c2)C(C)C)cc1OC (racemic) [racemic verapamil, verapamil]
0.009 mg/mL for 300 hours
  reduction of MMP activity: about 21%
0.05 mg/mL for 32 hours
  reduction of MMP production/activity: 59%
0.05 mg/mL for 34 hours
  reduction of MMP production/activity: 61%
0.05 mg/mL for 62 hours
  reduction in MMP activity: 87%
Synovial cell, 45 h, read-out: maximum MMP inhibition
  inhibition at 50 µg/mL: ~81%
Synovial cell, 300 h, read-out: MMP inhibition
  inhibition at 31 µg/mL: ~61%
Synovial cell, 300 h, read-out: maximum MMP inhibition
  inhibition at 19 µg/mL: 37%
Synovial cell, read-out: MMP inhibition
  inhibition at 50 µg/mL: 81%
Conditions of 2 mg in saline composition: average 0.006 mg/mL, about 35 hours
  reduction of MMP production: 13%
Exposure about 45 hours, further increases give no enhanced inhibition
  verapamil concentration at which MMP inhibition reaches its maximum value: about 0.05 mg/mL
Exposure time 10 hours (FIG. 3A)
  maximum MMP inhibition: 22%
Exposure time 100 hours (FIG. 3A)
  maximum MMP inhibition: 91%
